How the values were obtained:
B1 bradykinin receptor [1] = target: T1, B1 bradykinin receptor (Homo sapiens, UniProt P46663); assay: Binding affinity to human BK1 receptor
T1 sequence (P46663 whole entry): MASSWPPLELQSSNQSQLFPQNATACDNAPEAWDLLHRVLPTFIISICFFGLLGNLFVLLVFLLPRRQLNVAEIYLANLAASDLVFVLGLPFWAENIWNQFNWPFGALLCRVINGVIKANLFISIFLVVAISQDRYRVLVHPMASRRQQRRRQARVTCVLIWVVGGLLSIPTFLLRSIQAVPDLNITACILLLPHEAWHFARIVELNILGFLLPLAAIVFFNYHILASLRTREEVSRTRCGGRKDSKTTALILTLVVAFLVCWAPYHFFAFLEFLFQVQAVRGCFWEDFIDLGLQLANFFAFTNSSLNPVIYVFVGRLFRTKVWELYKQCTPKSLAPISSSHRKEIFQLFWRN

B1 bradykinin receptor [2] = target: T2, B1 bradykinin receptor (Homo sapiens, UniProt P46663); assay: Binding affinity to human BK1 receptor E273 mutant
B1 bradykinin receptor [3] = target: T2, B1 bradykinin receptor; assay: Binding affinity to human BK1 receptor D291 mutant
B1 bradykinin receptor [4] = target: T2, B1 bradykinin receptor; assay: Binding affinity to human BK1 receptor Q295 mutant
B1 bradykinin receptor [5] = target: T2, B1 bradykinin receptor; assay: Binding affinity to human BK1 receptor N298 mutant

Ki (B1 bradykinin receptor [1]) [nM] | Structure (SMILES) | other results
1.5 | CCC(C)N1CCN(C(=O)c2ccc(NCc3ccc(-c4cccc(F)c4C(=O)OC)cc3F)nc2)CC1 (stereo not given) | 
2100 | COC(=O)c1c(F)cccc1-c1ccc(CNc2cc(C(=O)N3CCOCC3)ccn2)c(F)c1 | 
3.4 | CCN1CCN(C(=O)c2ccc(NCc3ccc(-c4cccc(F)c4C(=O)OC)cc3F)nc2)CC1 | 
1.7 | CCCN1CCN(C(=O)c2ccc(NCc3ccc(-c4cccc(F)c4C(=O)OC)cc3F)nc2)CC1 | 
0.71 | COC(=O)c1c(F)cccc1-c1ccc(CNc2nccc(C)c2NC(=O)CC#N)c(F)c1 | 
1.5 | COC(=O)c1c(F)cccc1-c1ccc(CNc2ccc(C(=O)N3CCN(CC(C)C)CC3)cn2)c(F)c1 | 
52 | COC(=O)c1c(F)cccc1-c1ccc(CNc2ccc(C(=O)N3CCN(CC(F)(F)F)CC3)cn2)c(F)c1 | 
> 3000 | COC(=O)c1c(Cl)cccc1-c1ccc(CNc2cc(CN3CCOCC3)ccn2)c(F)c1 | 
0.034 | O=C(C[C@@H]1C(=O)Nc2ccccc2N1S(=O)(=O)c1ccc(Cl)c(Cl)c1)NCCc1ccc(C2=NCCN2)cc1 | Ki (B1 bradykinin receptor [2]): 0.0078 nM; Ki (B1 bradykinin receptor [3]): 0.049 nM; Ki (B1 bradykinin receptor [4]): 0.89 nM; Ki (B1 bradykinin receptor [5]): 0.038 nM
65 | COC(=O)c1c(F)cccc1-c1ccc(CNc2ccc(C(=O)N3CCN(c4ccccn4)CC3)cn2)c(F)c1 | Ki (B1 bradykinin receptor [2]): 286 nM; Ki (B1 bradykinin receptor [3]): 85 nM; Ki (B1 bradykinin receptor [4]): 10000 nM; Ki (B1 bradykinin receptor [5]): 726 nM
0.85 | COC(=O)c1c(F)cccc1-c1ccc(CNc2ccc(C(=O)N3CCN(CC4CC4)CC3)cn2)c(F)c1 | 
4.4 | COC(=O)c1c(F)cccc1-c1ccc(CNc2ccc(C(=O)N3CCN(C)CC3)cn2)c(F)c1 | 
893 | COC(=O)c1c(F)cccc1-c1ccc(CNc2cc(C(=O)N3CCN(C)CC3)ccn2)c(F)c1 | 
3.3 | C/C=C/CN1CCN(C(=O)c2ccc(NCc3ccc(-c4cccc(F)c4C(=O)OC)cc3F)nc2)CC1 | 
28 | COC(=O)c1c(F)cccc1-c1ccc(CNc2ccc(C(=O)N3CCN(CC(F)F)CC3)cn2)c(F)c1 | 
2.2 | COC(=O)c1c(F)cccc1-c1ccc(CNc2ccc(C(=O)N3CCN(C(C)C)CC3)cn2)c(F)c1 | 
25 | C#CCN1CCN(C(=O)c2ccc(NCc3ccc(-c4cccc(F)c4C(=O)OC)cc3F)nc2)CC1 | 
3.4 | COC(=O)c1c(F)cccc1-c1ccc(CNc2ccc(C(=O)N3CCN(CC4CCC4)CC3)cn2)c(F)c1 | 

The remaining lines, values behind:

Structure (SMILES) | Ki (B1 bradykinin receptor [1]) [nM] | other results
COC(=O)c1c(F)cccc1-c1ccc(CNc2ccc(C(=O)N3CCN(CCF)CC3)cn2)c(F)c1 | 5.2 | 
CCCCN1CCN(C(=O)c2ccc(NCc3ccc(-c4cccc(F)c4C(=O)OC)cc3F)nc2)CC1 | 1.4 | 
COC(=O)c1c(F)cccc1-c1ccc(CNc2ccc(C(=O)N3CCN(C(=O)OC)CC3)cn2)c(F)c1 | 34 | 
COC(=O)c1c(F)cccc1-c1ccc(CNc2ccc(C(=O)N3CCN(c4cccnc4)CC3)cn2)c(F)c1 | 3.5 | 
COC(=O)c1c(F)cccc1-c1ccc(CNc2ccc(CN3CCCCC3)cn2)c(F)c1 | 9.1 | 
COC(=O)c1c(F)cccc1-c1ccc(CNc2ccc(C(=O)N3CCOCC3)cn2)c(F)c1 | 80 | 
COC(=O)c1c(F)cccc1-c1ccc(CNc2ccc(C(=O)N3CCN(C(C)=O)CC3)cn2)c(F)c1 | 17 | 
COC(=O)c1c(F)cccc1-c1ccc(CNc2ccc(C(=O)N3CCN(c4ccncc4)CC3)cn2)c(F)c1 | 0.045 | Ki (B1 bradykinin receptor [2]): 0.05 nM; Ki (B1 bradykinin receptor [3]): 0.08 nM; Ki (B1 bradykinin receptor [4]): 5.12 nM; Ki (B1 bradykinin receptor [5]): 0.83 nM
COC(=O)c1c(F)cccc1-c1ccc(CNc2ccccn2)c(F)c1 | 815 | 
COC(=O)c1c(F)cccc1-c1ccc(CNc2ccc(C(=O)N3CCN(c4ccccc4)CC3)cn2)c(F)c1 | 62 | 
C=CCCN1CCN(C(=O)c2ccc(NCc3ccc(-c4cccc(F)c4C(=O)OC)cc3F)nc2)CC1 | 4 | 
COC(=O)c1c(F)cccc1-c1ccc(CNc2cc(C(=O)N3CCCCC3)ccn2)c(F)c1 | > 3000 | 
COC(=O)c1c(Cl)cccc1-c1ccc(CNc2cc(CN3CCCCC3)ccn2)c(F)c1 | 611 | 
COC(=O)c1c(F)cccc1-c1ccc(CNc2ccc(C(=O)N3CCN(C4CCCC4)CC3)cn2)c(F)c1 | 1.5 | 
C=CCN1CCN(C(=O)c2ccc(NCc3ccc(-c4cccc(F)c4C(=O)OC)cc3F)nc2)CC1 | 8 | 
COC(=O)c1c(F)cccc1-c1ccc(CNc2ccc(C(=O)N3CCN(CC4CCCC4)CC3)cn2)c(F)c1 | 1.7 | 
COC(=O)c1c(F)cccc1-c1ccc(CNc2ccc(CN3CCOCC3)cn2)c(F)c1 | 184 | 
COC(=O)c1c(F)cccc1-c1ccc(CNc2ccc(C(=O)N3CCN(CCC(C)C)CC3)cn2)c(F)c1 | 9.5 | 
COC(=O)c1c(F)cccc1-c1ccc(CNc2ccc(C(=O)N3CCNCC3)cn2)c(F)c1 | 5.5 | 
COC(=O)c1c(F)cccc1-c1ccc(CNc2ccc(C(=O)N3CCCCC3)cn2)c(F)c1 | 70 | 
COC(=O)c1c(F)cccc1-c1ccc(CNc2ccc(C(=O)N3CCN(S(C)(=O)=O)CC3)cn2)c(F)c1 | 23 | 
COC(=O)c1c(F)cccc1-c1ccc(CNc2ccc(C(=O)N3CCN(Cc4ccccc4)CC3)cn2)c(F)c1 | 26 | 
COC(=O)c1c(F)cccc1-c1ccc(CNc2ccc(C(=O)N3CCN(C(=O)C(C)(C)C)CC3)cn2)c(F)c1 | 213 | 
COC(=O)c1c(F)cccc1-c1ccc(CNc2ccc(C(=O)N3CCN(C4CCCCC4)CC3)cn2)c(F)c1 | 2.8 | 
COC(=O)c1c(F)cccc1-c1ccc(CNc2ccc(C(=O)N3CCN(C4CCC4)CC3)cn2)c(F)c1 | 2.9 | 

— ChEMBL document CHEMBL1147019, “5-Piperazinyl pyridine carboxamide bradykinin B1 antagonists” (Bioorg Med Chem Lett, 2006)
